# Data reported in paper PMC8205226, “HIV-1 Integrase Inhibitors with Modifications That Affect Their Potencies against Drug Resistant Integrase Mutants” (ACS Infectious Diseases, 2021).
# Where two headings read alike, the source gives them in different places.
# Experiments:
# Type in all cases: cell-based
# HIV-1 IN mutant S119R = test: single-round infectivity assay, S119R IN mutant
# Description: (§1) The EC50 values were determined using a vector that carries the IN mutant in a single round infection assay. […] Error bars represent the standard deviations of independent experiments, n = 4, performed in triplicate.
# (§2) WT and mutant HIV-1 viral vectors were used in single-round infectivity assays to determine the antiviral potencies (EC50 values) of the compounds and the effects of the mutants on the EC50 values as previously described.[30],[54] Single round infectivity measurements were determined as done previously.[38]
# (§3) The vector pNLNgoMIVR-ΔENV.LUC has been described previously.[26] To produce the new IN mutants used in this study, the IN open reading frame was removed from pNLNgoMIVR-ΔENV.LUC by digestion with KpnI and SalI, and the resulting fragment was inserted between the KpnI and SalI sites of pBluescript KS+. Using that construct as the wild-type template, we prepared the following HIV-1 IN mutants using the QuikChange II XL site directed mutagenesis kit (Agilent Technologies, Santa Clara, CA) protocol: N117A, N117H, P142A, P142H, P142S, Y143C, Y143H, S230R, R231G, and R231K. The following sense oligonucleotides were used with matching cognate antisense oligonucleotides (not shown) (Integrated DNA Technologies, Coralville, IA) in the mutagenesis: N117A, 5′-[…]-3′; N117H, 5′-[…]-3′; P142A, 5′-[…]-3′; P142H, 5′-[…]-3′; P142S, 5′-[…]-3′; Y143C, 5′- […]-3′; Y143H, 5′-[…]-3′; S230R, 5′- […]-3′; R231G, 5′-[…]-3′; R231K, 5′-[…]-3′.
# HIV-1 IN mutant N117A = test: single-round infectivity assay, N117A IN mutant
# Description: as §1, §2, §3
# HIV-1 IN mutant P142S = test: single-round infectivity assay, P142S IN mutant
# Description: (§4) Figure 4 Mutations in the β5-α3 loop affect the antiviral potencies of the new compounds. The EC50 values were determined using a vector that carries the IN mutant in a single round infection assay. […] Error bars represent the standard deviations of independent experiments, n = 4, performed in triplicate.
# as §2, §3
# HIV-1 IN mutant S230R = test: single-round infectivity assay, S230R IN mutant
# Description: (§5) Figure 5 Antiviral potencies of the new compounds against IN with mutations in the […]. The EC50 values were determined using a vector that carries the IN mutant in a single round infection assay. […] Error bars represent the standard deviations of independent experiments, n = 4, performed in triplicate.
# as §2, §3
# HIV-1 IN mutant G118R = test: single-round infectivity assay, G118R IN mutant
# Description: as §1, §2, §3
# HIV-1 IN mutant R231K = test: single-round infectivity assay, R231K IN mutant
# Description: as §5, §2, §3
# WT HIV-1 = test: single-round infectivity assay, WT HIV-1 IN vector; settings: Human immunodeficiency virus 1, read-out: EC50 values WT, vector carrying WT HIV-1 IN, single round infection, n = 4; new compounds
# Description: (§6) Figure 2 Antiviral activities of the new compounds against RAL-resistant mutants. The EC50 values were determined using a vector that carries WT HIV-1 IN and the RAL-resistant mutants in a single round infection assay. […] Error bars represent the standard deviations of independent experiments, n = 4, performed in triplicate. The graph has a maximum value of 550 nM.
# as §2, §3
# HIV-1 IN mutant N117H = test: single-round infectivity assay, N117H IN mutant
# Description: as §1, §2, §3
# HIV-1 IN mutant Y143C = test: single-round infectivity assay, Y143C IN mutant
# Description: as §4, §2, §3
# HIV-1 IN mutant Y143H = test: single-round infectivity assay, Y143H IN mutant
# Description: as §4, §2, §3
# HIV-1 IN mutant Y143R = test: single-round infectivity assay, Y143R IN mutant
# Description: as §6, §2, §3
# HIV-1 IN mutant R231G = test: single-round infectivity assay, R231G IN mutant
# Description: as §5, §2, §3
# HIV-1 IN mutant P142A = test: single-round infectivity assay, P142A IN mutant
# Description: as §4, §2, §3
# HIV-1 IN mutant P142H = test: single-round infectivity assay, P142H IN mutant
# Description: as §1
# Single round infectivity measurements were determined as done previously.[38]
# as §3
# [1] = test system: HIV-1 IN double mutant G140S/Q148H; test: single-round infectivity assay, G140S/Q148H IN double mutant
# Description: as §6, §2, §3
# HIV-1 IN mutant N155H = test: single-round infectivity assay, N155H IN mutant
# Description: as §6, §2, §3
# [2] = fold change in EC50, IN mutant versus WT HIV-1
smiles,measurement,setting,value
"O=C(NCc1ccc(F)cc1F)c1c(O)c2cc(CCS(=O)(=O)c3ccccc3)cnc2n(O)c1=O [6w, N-(2,4-Difluorobenzyl)-1,4-dihydroxy-2-oxo-6-(2-(phenylsulfonyl)ethyl)-1,2-dihydro-1,8-naphthyridine-3-carboxamide]",ratio of the EC50s (our compound relative to DTG) against S119R,HIV-1 IN mutant S119R; EC50 compound / EC50 DTG,16.6
same,EC50,"HIV-1 IN mutant S119R; Human immunodeficiency virus 1, read-out: EC50 values S119R",38.2 ± 6 nM
same,FC S119R,HIV-1 IN mutant S119R; [2],3.6
same,ratio of the EC50s (our compound relative to DTG) against N117A,HIV-1 IN mutant N117A; EC50 compound / EC50 DTG,12.8
same,EC50,"HIV-1 IN mutant N117A; Human immunodeficiency virus 1, read-out: EC50 values N117A",6.4 nM
same,FC N117A,HIV-1 IN mutant N117A; [2],0.6
same,ratio of the EC50s (our compound relative to DTG) against P142S,HIV-1 IN mutant P142S; EC50 compound / EC50 DTG,14.2
same,EC50,"HIV-1 IN mutant P142S; Human immunodeficiency virus 1, read-out: EC50 values P142S",31.2 ± 3.7 nM
same,ratio of the EC50s (our compound relative to DTG) against S230R,HIV-1 IN mutant S230R; EC50 compound / EC50 DTG,2.4
same,EC50,"HIV-1 IN mutant S230R; Human immunodeficiency virus 1, read-out: EC50 values S230R",11.2 ± 1.6 nM
same,FC S230R,HIV-1 IN mutant S230R; [2],1.1
same,ratio of the EC50s (our compound relative to DTG) against G118R,HIV-1 IN mutant G118R; EC50 compound / EC50 DTG,16.8
same,EC50,"HIV-1 IN mutant G118R; Human immunodeficiency virus 1, read-out: EC50 values G118R",219 ± 29.8 nM
same,FC G118R,HIV-1 IN mutant G118R; [2],20.7
same,ratio of the EC50s (our compound relative to DTG) against R231K,HIV-1 IN mutant R231K; EC50 compound / EC50 DTG,6.7
same,EC50,"HIV-1 IN mutant R231K; Human immunodeficiency virus 1, read-out: EC50 values R231K, single round infection, n = 4",28.2 ± 3.9 nM
same,FC R231K,HIV-1 IN mutant R231K; [2],2.7
same,EC50,WT HIV-1,10.6 ± 1 nM
same,ratio of the EC50s (our compound relative to DTG) against N117H,HIV-1 IN mutant N117H; EC50 compound / EC50 DTG,7.9
same,EC50,"HIV-1 IN mutant N117H; Human immunodeficiency virus 1, read-out: EC50 values N117H",19 ± 1.4 nM
same,FC N117H,HIV-1 IN mutant N117H; [2],1.8
same,ratio of the EC50s (our compound relative to DTG) against Y143C,HIV-1 IN mutant Y143C; EC50 compound / EC50 DTG,13.4
same,EC50,"HIV-1 IN mutant Y143C; Human immunodeficiency virus 1, read-out: EC50 values Y143C, single round infection, n = 4",18.8 ± 1.4 nM
same,EC50,"HIV-1 IN mutant Y143C; read-out: EC50 values Y143C, single round infection, n = 4",> 18 nM
same,ratio of the EC50s (our compound relative to DTG) against Y143H,HIV-1 IN mutant Y143H; EC50 compound / EC50 DTG,11.4
same,EC50,"HIV-1 IN mutant Y143H; Human immunodeficiency virus 1, read-out: EC50 values Y143H, single round infection, n = 4",25.1 ± 3.6 nM
same,EC50,"HIV-1 IN mutant Y143H; read-out: EC50 values Y143H, single round infection, n = 4",> 18 nM
same,ratio of the EC50s (our compound relative to DTG) against Y143R,HIV-1 IN mutant Y143R; EC50 compound / EC50 DTG,1.7
same,EC50,"HIV-1 IN mutant Y143R; Human immunodeficiency virus 1, read-out: EC50 values Y143R",7.2 ± 1.7 nM
same,FC Y143R,HIV-1 IN mutant Y143R; [2],0.7
same,ratio of the EC50s (our compound relative to DTG) against R231G,HIV-1 IN mutant R231G; EC50 compound / EC50 DTG,10.9
same,EC50,"HIV-1 IN mutant R231G; Human immunodeficiency virus 1, read-out: EC50 values R231G",15.2 ± 1.4 nM
same,FC R231G,HIV-1 IN mutant R231G; [2],1.4
same,ratio of the EC50s (our compound relative to DTG) against P142A,HIV-1 IN mutant P142A; EC50 compound / EC50 DTG,9.1
same,EC50,"HIV-1 IN mutant P142A; Human immunodeficiency virus 1, read-out: EC50 values P142A",22.8 ± 2.5 nM
same,ratio of the EC50s (our compound relative to DTG) against P142H,HIV-1 IN mutant P142H; EC50 compound / EC50 DTG,9.2
same,EC50,"HIV-1 IN mutant P142H; Human immunodeficiency virus 1, read-out: EC50 values P142H",25.7 ± 2 nM
same,"FC, difference in potencies 6w compared to 4f against G140S/Q148H",[1]; EC50 6w / EC50 4f,18.8
same,ratio of the EC50s (our compound relative to DTG) against G140S/Q148H,[1]; EC50 compound / EC50 DTG,16.8
same,EC50,"[1]; Human immunodeficiency virus 1, read-out: EC50 values G140S/Q148H",97.5 ± 16.8 nM
same,FC G140S/Q148H,[1]; [2],9.2
same,ratio of the EC50s (our compound relative to DTG) against N155H,HIV-1 IN mutant N155H; EC50 compound / EC50 DTG,3.9
same,EC50,"HIV-1 IN mutant N155H; Human immunodeficiency virus 1, read-out: EC50 values N155H",14.1 ± 4.3 nM
same,FC N155H,HIV-1 IN mutant N155H; [2],1.3
